Test results as given in patent publication US20250146039A1, “Terpene Glycoside Derivatives and Uses Thereof” (Firmenich SA, priority 2018, published 2025).

System: panel of taste experts
Assay: taste evaluation of purified compounds in a water base
Type: in vivo
Settings: 500 ppm in a water base
Experimental: A composition comprising the at least one glucosylated terpene glucosides was generated according to the methods described in the preceding examples. The compounds were dissolved in water (alternatively, the compounds could also be combined into a 2% (w/w) or 4% (w/w) sucrose solution or 7% (w/w) inverted sugar plus 0.15% citric acid (w/w) solution), wherein the final concentration of the composition in solution may range from 1 to 1000 ppm. A panel of taste experts evaluated the solutions.

## C=C1C[C@@]23CC[C@H]4[C@@](C)(CCC[C@@]4(C)C(=O)O[C@@H]4OC(CO)[C@@H](O)C(O)C4O)[C@@H]2CC[C@]1(O[C@@H]1OC(CO)[C@@H](O)C(O[C@@H]2OC(CO[C@H]4OC(CO)[C@@H](O)C(O)C4O)[C@@H](O)C(O)C2O)C1O[C@@H]1OC(CO)[C@@H](O)C(O)C1O)C3 (stereo partly shown) [compound of formula VIII]
  taste perceived: strong sweet taste
  times sweeter than sucrose: 200-300 times

## C=C1C[C@@]23CC[C@H]4[C@@](C)(CCC[C@@]4(C)C(=O)O[C@@H]4OC(CO[C@H]5OC(CO)[C@@H](O)C(O)C5O)[C@@H](O)C(O)C4O)[C@@H]2CC[C@]1(O[C@@H]1OC(CO)[C@@H](O)C(O[C@@H]2OC(CO)[C@@H](O)C(O)C2O)C1O[C@@H]1OC(CO)[C@@H](O)C(O)C1O)C3 (stereo partly drawn) [compound of formula III, Mono α-1,6-glucosylated Rebaudioside A]
  taste perceived: strong sweet taste
  times sweeter than sucrose: 200-300 times
